Data from patent US6355799B1, “Substituted benzene compounds, process for their preparation, and herbicidal and defoliant compositions containing them” (ISK Americas Incorporated, priority 1997, dated 2002).

Key:
Format in all cases: in vivo
[1] = tested on: redroot pigweed (Amaranthus retroflexus, AMARE); assay: Pre-emerge test, greenhouse herbicide activity screening; conditions: rated 14 days after application, 0 = no damage, 100 = complete death
Outline: (§1)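 Rating: 0–100 visual injury, 14 DAA. Application: acetone, 187 l/ha, 15–1000 g ai/ha, flat-fan track sprayer with nozzle 40–45 cm above soil or canopy. Post-emerge runs used 0.25% v/v surfactant on 2–3 leaf plants.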

[2] = tested on: barnyardgrass (Echinochloa crus-galli, ECHCG); assay: as above; conditions: rated 14 days after application, 0 = no damage, 100 = complete death
Outline: (§2)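 Sandy loam pots; pre-emerge: sown 1 d pre-spray, surface-watered after, then bottom-watered. Post-emerge: sown 8–21 d before, 2–3 leaf stage, + 0.25% v/v NIS, bottom-watered. Acetone, 187 l/ha track spray, 15–1000 g ai/ha. 0–100 injury score, day 14.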

[3] = tested on: common ragweed (Ambrosia artemisizfolia L., AMBEL); assay: as above; conditions: rated 14 days after application, 0 = no damage, 100 = complete death
Outline: as §2

[4] = tested on: green foxtail (Setaria viridis, SETVI); assay: as above; conditions: rated 14 days after application, 0 = no damage, 100 = complete death
Outline: as §2

[5] = tested on: ivyleaf morningglory (Ipomoea hederacea, IPOHE); assay: as above; conditions: rated 14 days after application, 0 = no damage, 100 = complete death
Outline: as §2

[6] = tested on: johnsongrass (Sorghum halepense, SORHA); assay: as above; conditions: rated 14 days after application, 0 = no damage, 100 = complete death
Outline: as §2

[7] = tested on: lambsquarters (Chenopodium album, CHEAL); assay: as above; conditions: rated 14 days after application, 0 = no damage, 100 = complete death
Outline: as §2

[8] = tested on: large crabgrass (Digitaria sanguinalis, DIGSA); assay: as above; conditions: rated 14 days after application, 0 = no damage, 100 = complete death
Outline: as §2

[9] = tested on: sicklepod (Cassia obtusifolia, CASOB); assay: as above; conditions: rated 14 days after application, 0 = no damage, 100 = complete death
Outline: as §2

[10] = tested on: velvetleaf (Abutilon theophrasti, ABUTH); assay: as above; conditions: rated 14 days after application, 0 = no damage, 100 = complete death
Outline: as §2

[11] = tested on: field corn (Zea mays L., var. Dekalb 535, CORN); assay: Pre-emerge test, crop safety; conditions: rated 14 days after application, 0 = no damage, 100 = complete death
Outline: as §1

[12] = tested on: upland rice (Oryza sp., var. Tebonnet, RICE); assay: Pre-emerge test, crop safety; conditions: rated 14 days after application, 0 = no damage, 100 = complete death
Outline: as §1

[13] = tested on: barnyardgrass (Echinochloa crus-galli, ECHCG); assay: Post-emerge test, greenhouse herbicide activity screening; conditions: post-emerge, 14 days after application, rating scale 0-100
Outline: (§3)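 Each test used a mechanized track sprayer delivering 187 l/ha of acetone solution at 15–1000 g ai/ha. Post-emerge foliage at 2–3 leaves was treated with added 0.25% v/v non-ionic surfactant and bottom-watered only. Injury was assessed on day 14, where 100 means total kill.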

[14] = tested on: common ragweed (Ambrosia artemisizfolia L., AMBEL); assay: as above; conditions: post-emerge, 14 days after application, rating scale 0-100
Outline: as §3

[15] = tested on: green foxtail (Setaria viridis, SETVI); assay: as above; conditions: post-emerge, 14 days after application, rating scale 0-100
Outline: as §3

[16] = tested on: ivyleaf morningglory (Ipomoea hederacea, IPOHE); assay: as above; conditions: post-emerge, 14 days after application, rating scale 0-100
Outline: as §3

[17] = tested on: johnsongrass (Sorghum halepense, SORHA); assay: as above; conditions: post-emerge, 14 days after application, rating scale 0-100
Outline: as §3

[18] = tested on: lambsquarters (Chenopodium album, CHEAL); assay: as above; conditions: post-emerge, 14 days after application, rating scale 0-100
Outline: as §3

[19] = tested on: large crabgrass (Digitaria sanguinalis, DIGSA); assay: as above; conditions: post-emerge, 14 days after application, rating scale 0-100
Outline: as §3

[20] = tested on: redroot pigweed (Amaranthus retroflexus, AMARE); assay: as above; conditions: post-emerge, 14 days after application, rating scale 0-100
Outline: as §3

[21] = tested on: sicklepod (Cassia obtusifolia, CASOB); assay: as above; conditions: post-emerge, 14 days after application, rating scale 0-100
Outline: as §3

[22] = tested on: velvetleaf (Abutilon theophrasti, ABUTH); assay: as above; conditions: post-emerge, 14 days after application, rating scale 0-100
Outline: as §3

[23] = tested on: field corn (Zea mays L., var. Dekalb 535, CORN); assay: Post-emerge test, crop safety; conditions: post-emerge, 14 days after application, rating scale 0-100
Outline: as §2

[24] = tested on: upland rice (Oryza sp., var. Tebonnet, RICE); assay: Post-emerge test, crop safety; conditions: post-emerge, 14 days after application, rating scale 0-100
Outline: as §2

SMILES: COc1c(Cl)cc(F)c(-n2c(=O)cc(C(F)(F)F)n(C)c2=O)c1NC(=O)c1ccc(Cl)c(Cl)c1 [2-59]
- Pre-emerge Herbicidal Activity, phytotoxicity rating (0-100), AMARE ([1]; 63 g ai/ha): 100
- Pre-emerge Herbicidal Activity, phytotoxicity rating (0-100), AMARE ([1]; 250 g ai/ha): 100
- Pre-emerge Herbicidal Activity, phytotoxicity rating (0-100), ECHCG ([2]; 63 g ai/ha): 40
- Pre-emerge Herbicidal Activity, phytotoxicity rating (0-100), ECHCG ([2]; 250 g ai/ha): 9
- Pre-emerge Herbicidal Activity, phytotoxicity rating (0-100), AMBEL ([3]; 63 g ai/ha): 50
- Pre-emerge Herbicidal Activity, phytotoxicity rating (0-100), AMBEL ([3]; 250 g ai/ha): 90
- Pre-emerge Herbicidal Activity, phytotoxicity rating (0-100), SETVI ([4]; 63 g ai/ha): 100
- Pre-emerge Herbicidal Activity, phytotoxicity rating (0-100), SETVI ([4]; 250 g ai/ha): 100
- Pre-emerge Herbicidal Activity, phytotoxicity rating (0-100), IPOHE ([5]; 63 g ai/ha): 20
- Pre-emerge Herbicidal Activity, phytotoxicity rating (0-100), IPOHE ([5]; 250 g ai/ha): 100
- Pre-emerge Herbicidal Activity, phytotoxicity rating (0-100), SORHA ([6]; 63 g ai/ha): 40
- Pre-emerge Herbicidal Activity, phytotoxicity rating (0-100), SORHA ([6]; 250 g ai/ha): 90
- Pre-emerge Herbicidal Activity, phytotoxicity rating (0-100), CHEAL ([7]; 63 g ai/ha): 100
- Pre-emerge Herbicidal Activity, phytotoxicity rating (0-100), CHEAL ([7]; 250 g ai/ha): 100
- Pre-emerge Herbicidal Activity, phytotoxicity rating (0-100), DIGSA ([8]; 63 g ai/ha): 70
- Pre-emerge Herbicidal Activity, phytotoxicity rating (0-100), DIGSA ([8]; 250 g ai/ha): 100
- Pre-emerge Herbicidal Activity, phytotoxicity rating (0-100), CASOB ([9]; 63 g ai/ha): 30
- Pre-emerge Herbicidal Activity, phytotoxicity rating (0-100), CASOB ([9]; 250 g ai/ha): 100
- Pre-emerge Herbicidal Activity, phytotoxicity rating (0-100), ABUTH ([10]; 63 g ai/ha): 100
- Pre-emerge Herbicidal Activity, phytotoxicity rating (0-100), ABUTH ([10]; 250 g ai/ha): 100
- Pre-emerge phytotoxicity rating (0-100), crop damage, CORN ([11]; 63 g ai/ha): 10
- Pre-emerge phytotoxicity rating (0-100), crop damage, CORN ([11]; 250 g ai/ha): 70
- Pre-emerge phytotoxicity rating (0-100), crop damage, RICE ([12]; 63 g ai/ha): 25
- Pre-emerge phytotoxicity rating (0-100), crop damage, RICE ([12]; 250 g ai/ha): 75
- phytotoxicity rating ECHCG ([13]; 63 g ai/ha): 0
- phytotoxicity rating ECHCG ([13]; 250 g ai/ha): 30
- phytotoxicity rating AMBEL ([14]; 63 g ai/ha): 70
- phytotoxicity rating AMBEL ([14]; 250 g ai/ha): 100
- phytotoxicity rating SETVI ([15]; 63 g ai/ha): 20
- phytotoxicity rating SETVI ([15]; 250 g ai/ha): 20
- phytotoxicity rating IPOHE ([16]; 63 g ai/ha): 100
- phytotoxicity rating IPOHE ([16]; 250 g ai/ha): 100
- phytotoxicity rating SORHA ([17]; 63 g ai/ha): 30
- phytotoxicity rating SORHA ([17]; 250 g ai/ha): 65
- phytotoxicity rating CHEAL ([18]; 63 g ai/ha): 100
- phytotoxicity rating CHEAL ([18]; 250 g ai/ha): 100
- phytotoxicity rating DIGSA ([19]; 63 g ai/ha): 0
- phytotoxicity rating DIGSA ([19]; 250 g ai/ha): 30
- phytotoxicity rating AMARE ([20]; 63 g ai/ha): 100
- phytotoxicity rating AMARE ([20]; 250 g ai/ha): 100
- phytotoxicity rating CASOB ([21]; 63 g ai/ha): 90
- phytotoxicity rating CASOB ([21]; 250 g ai/ha): 100
- phytotoxicity rating ABUTH ([22]; 63 g ai/ha): 100
- phytotoxicity rating ABUTH ([22]; 250 g ai/ha): 100
- phytotoxicity rating CORN ([23]; 63 g ai/ha): 70
- phytotoxicity rating CORN ([23]; 250 g ai/ha): 80
- phytotoxicity rating RICE ([24]; 63 g ai/ha): 70
- phytotoxicity rating RICE ([24]; 250 g ai/ha): 80
